Literature values as cited in US20220152157A1 (priority 2020, published 2022).
Where two headings read alike, the source gives them in different places.

Tests used:
influenza A virus = details: for membrane convergence of virus and host cell: influenza A, model MDCK cells
pulmonary inflammation = details: in vivo
[1] = system: Toll-like receptors (TLR)
virus [2] = details: mice
virus [3] = details: ferrets
[4] = system: human respiratory viruses; details: combined with ribavirin, experimental animal models
[5] = system: human respiratory viruses; details: combined with ribavirin, in vitro

Row | Compound | binding affinity for the influenza A virus (influenza A virus) | binding of the influenza A virus to the surrogate host cells (influenza A virus) | membrane convergence of virus and host cell (influenza A virus) | virus-induced proinflammatory cytokines (pulmonary inflammation) | deactivation of Toll-like receptors (TLR) [1] | viricidal effect (virus [2]) | viricidal effect (virus [3]) | lowering of total inflammatory cell infiltrates (neutrophils and lymphocytes) (pulmonary inflammation) [%] | antiviral effects of the combination [4] | antiviral effects of the combination [5]
1 | CCCCC/C=C\C/C=C\C/C=C\C/C=C\CCCC(=O)OC(COC(=O)CCCCCCCCCCCCCCCCC)COP(=O)(O)OC1C(O)C(O)C(O)C(O)C1O (centres unmarked) [PI, phosphatidyl inositol] | high binding affinity | prevent the binding | inhibited | reduced | deactivators of Toll-like receptors | – | – | – | – | –
2 | 1-palmitoyl-2-oleoyl-sn-glycero-3-phosphoglycerol [POPG] | high binding affinity | prevent the binding | inhibited | reduced | deactivators of Toll-like receptors | viricidal | viricidal | > 90 | – | –
3 | CC(N)C12CC3CC(CC(C3)C1)C2 (centres unmarked) [Rimantadine] | – | – | – | – | – | – | – | – | increased antiviral effects | increased antiviral effects
4 | NC12CC3CC(CC(C3)C1)C2 [amantadine] | – | – | – | – | – | – | – | – | increased antiviral effects | increased antiviral effects
